The values that follow come from ChEMBL document CHEMBL5352419, “Design, synthesis, and biological evaluation of tetrahydroquinoline amphiphiles as membrane-targeting antimicrobials against pathogenic bacteria and fungi” (Eur J Med Chem, 2022).

Molecules are shown by their SMILES. Converted amounts (≈) assume the structure as drawn.

Data set [1] has as its system Candida albicans. As to the kind of experiment: Antimicrobial activity against Candida albicans ATCC10231 assessed as fungal growth inhibition incubated for 48 hrs by Sabouraud Dextrose broth based dilution assay. It counts as functional.
In data set [2] the test system is Candida albicans. Kind of data set: Antimicrobial activity against Candida albicans CMCC98001 assessed as fungal growth inhibition incubated for 48 hrs by Sabouraud Dextrose broth based dilution assay. Format: functional.
Data set [3] deals with Staphylococcus aureus. As to the kind of experiment: Antimicrobial activity against Staphylococcus aureus ATCC29213 assessed as bacterial growth inhibition incubated for 24 hrs by Muller Hinton broth based dilution assay. Format: functional.
For data set [4], the system named is Staphylococcus aureus. Kind of data set: Antimicrobial activity against methicillin-resistant Staphylococcus aureus N315 assessed as bacterial growth inhibition incubated for 24 hrs by Muller Hinton broth based dilution assay. It counts as functional.
In data set [5] the test system is Staphylococcus aureus. As to the kind of experiment: Antimicrobial activity against methicillin-resistant Staphylococcus aureus NCTC10442 assessed as bacterial growth inhibition incubated for 24 hrs by Muller Hinton broth based dilution assay. Format: functional.
The next data set concerns Escherichia coli. Kind of data set: Antimicrobial activity against Escherichia coli ATCC25922 assessed as bacterial growth inhibition incubated for 24 hrs by Muller Hinton broth based dilution assay. It counts as functional.
Data set [6] in a line: Hemolytic activity in rabbit RBC incubated for 1 hr by absorbance based microplate reader assay. It counts as toxicity, cell-based, Oryctolagus cuniculus, Erythrocyte. The following applies: rabbit red blood cells (erythrocytes).
Another data set concerns Pseudomonas aeruginosa. Kind of data set: Antimicrobial activity against Pseudomonas aeruginosa ATCC9027 assessed as bacterial growth inhibition incubated for 24 hrs by Muller Hinton broth based dilution assay. Format: functional.
Data set [7] deals with Acinetobacter baumannii. As to the kind of experiment: Antimicrobial activity against Acinetobacter baumannii ATCC17978 assessed as bacterial growth inhibition incubated for 24 hrs by Muller Hinton broth based dilution assay. Format: functional.
In data set [8] the test system is Acinetobacter baumannii. Kind of data set: Antimicrobial activity against Acinetobacter baumannii R2889 assessed as bacterial growth inhibition incubated for 24 hrs by Muller Hinton broth based dilution assay. Format: functional.
In data set [9] the test system is Klebsiella pneumoniae. Kind of data set: Antimicrobial activity against Klebsiella pneumoniae ATCC10031 assessed as bacterial growth inhibition incubated for 24 hrs by Muller Hinton broth based dilution assay. It counts as functional.
The test system of data set [10] is Klebsiella pneumoniae. As to the kind of experiment: Antimicrobial activity against Klebsiella pneumoniae ATCC14581 assessed as bacterial growth inhibition incubated for 24 hrs by Muller Hinton broth based dilution assay. Format: functional.

For orientation: MIC means the least concentration at which growth counts as inhibited. A word on the HC50: it is the concentration giving 50% haemolysis. High values mean less damage to red cells, low ones more damage to red cells. Turning to `CC(C)=CCN1CCCc2cc(OCCCCCCCCCCCCNC(=N)N)ccc21`, the MIC in the data set with Candida albicans [1] worked out at 0.78 µg/mL (≈ 1.76 µM); with Candida albicans [2], 0.78 µg/mL (≈ 1.76 µM); with Staphylococcus aureus [3], 1.56 µg/mL (≈ 3.52 µM); in the data set on Staphylococcus aureus [4], 0.78 µg/mL (≈ 1.76 µM); with Staphylococcus aureus [5], 0.78 µg/mL (≈ 1.76 µM); in the data set with Escherichia coli, 12.5 µg/mL (≈ 28.2 µM). The MIC in the data set with Pseudomonas aeruginosa is 50 µg/mL (≈ 113 µM); with Acinetobacter baumannii [7], 12.5 µg/mL (≈ 28.2 µM); with Acinetobacter baumannii [8], 12.5 µg/mL (≈ 28.2 µM); in the data set on Klebsiella pneumoniae [9], 3.12 µg/mL (≈ 7.06 µM); with Klebsiella pneumoniae [10], 3.12 µg/mL (≈ 7.06 µM). For the same molecule, in [6], the HC50 at 1 h is greater than 200 µg/mL.

`CC(C)=CCC/C(C)=C/CN1CCCc2cc(OCCCCNC(=N)N)ccc21`: the MIC was determined as 3.12 µg/mL (≈ 7.84 µM) in the data set with Candida albicans [1]; 1.56 µg/mL (≈ 3.91 µM) in the data set on Candida albicans [2]; 0.78 µg/mL (≈ 1.96 µM) in the data set with Staphylococcus aureus [3]; 0.78 µg/mL (≈ 1.96 µM) in the data set with Staphylococcus aureus [4]; 0.78 µg/mL (≈ 1.96 µM) with Staphylococcus aureus [5]; 3.12 µg/mL (≈ 7.84 µM) with Escherichia coli. The MIC with Pseudomonas aeruginosa amounted to 6.25 µg/mL (≈ 15.7 µM); in the data set with Acinetobacter baumannii [7] it was 3.12 µg/mL (≈ 7.84 µM); in the data set with Acinetobacter baumannii [8], 3.12 µg/mL (≈ 7.84 µM); with Klebsiella pneumoniae [9], 1.56 µg/mL (≈ 3.91 µM); in the data set with Klebsiella pneumoniae [10], 1.56 µg/mL (≈ 3.91 µM). Moreover, in data set [6], the HC50 at 1 h stood at 154 µg/mL.

In the case of `CCCCCCCN1CCCc2cc(OCC(=O)N[C@@H](CCCNC(=N)N)C(=O)OC)ccc21`, the MIC worked out at 25 µg/mL (≈ 52.6 µM) in the data set on Candida albicans [1]; 12.5 µg/mL (≈ 26.3 µM) in the data set on Candida albicans [2]; 3.12 µg/mL (≈ 6.57 µM) in the data set with Staphylococcus aureus [3]; 1.56 µg/mL (≈ 3.28 µM) in the data set on Staphylococcus aureus [4]; 1.56 µg/mL (≈ 3.28 µM) in the data set on Staphylococcus aureus [5]; 12.5 µg/mL (≈ 26.3 µM) in the data set on Escherichia coli. The MIC amounted to 12.5 µg/mL (≈ 26.3 µM) in the data set on Pseudomonas aeruginosa; 12.5 µg/mL (≈ 26.3 µM) with Acinetobacter baumannii [7]; 12.5 µg/mL (≈ 26.3 µM) in the data set with Acinetobacter baumannii [8]; 6.25 µg/mL (≈ 13.1 µM) in the data set with Klebsiella pneumoniae [9]; 6.25 µg/mL (≈ 13.1 µM) in the data set on Klebsiella pneumoniae [10]. This molecule returned an HC50 at 1 h in data set [6] greater than 200 µg/mL.

With `CCCCCCCN1CCCc2cc(OCCCCNC(=N)N)ccc21`, the MIC with Candida albicans [1] came to 6.25 µg/mL (≈ 17.3 µM); with Candida albicans [2], 3.12 µg/mL (≈ 8.67 µM); with Staphylococcus aureus [3], 1.56 µg/mL (≈ 4.33 µM); with Staphylococcus aureus [4] it was 0.78 µg/mL (≈ 2.16 µM); in the data set with Staphylococcus aureus [5], 0.78 µg/mL (≈ 2.16 µM); in the data set with Escherichia coli it was 3.12 µg/mL (≈ 8.67 µM). Moreover, the MIC in the data set on Pseudomonas aeruginosa came to 6.25 µg/mL (≈ 17.3 µM); with Acinetobacter baumannii [7], 6.25 µg/mL (≈ 17.3 µM); with Acinetobacter baumannii [8], 6.25 µg/mL (≈ 17.3 µM); with Klebsiella pneumoniae [9], 1.56 µg/mL (≈ 4.33 µM); in the data set on Klebsiella pneumoniae [10] it was 1.56 µg/mL (≈ 4.33 µM). Also, the HC50 at 1 h in [6] is 169 µg/mL.

With `CCCCCCCCCN1CCCc2cc(OCC(=O)N[C@@H](CCCNC(=N)N)C(=O)N[C@@H](CCCNC(=N)N)C(=O)OC)ccc21`, the MIC in the data set with Candida albicans [1] was greater than 50 µg/mL; with Candida albicans [2], 50 µg/mL (≈ 75.8 µM); in the data set with Staphylococcus aureus [3], 1.56 µg/mL (≈ 2.36 µM); in the data set with Staphylococcus aureus [4] it was 1.56 µg/mL (≈ 2.36 µM); with Staphylococcus aureus [5], 1.56 µg/mL (≈ 2.36 µM); in the data set with Escherichia coli, 3.12 µg/mL (≈ 4.74 µM). Further, the MIC in the data set on Pseudomonas aeruginosa was determined as 6.25 µg/mL (≈ 9.47 µM); in the data set with Acinetobacter baumannii [7], 6.25 µg/mL (≈ 9.47 µM); in the data set on Acinetobacter baumannii [8], 25 µg/mL (≈ 37.9 µM); with Klebsiella pneumoniae [9], 3.12 µg/mL (≈ 4.74 µM); with Klebsiella pneumoniae [10] it was 3.12 µg/mL (≈ 4.74 µM). The HC50 at 1 h in data set [6] is greater than 200 µg/mL.

As for `CCCCCCCCCN1CCCc2cc(OCC(=O)N[C@@H](CCCNC(=N)N)C(=O)N[C@@H](CCCNC(=N)N)C(=O)N[C@@H](CCCNC(=N)N)C(=O)OC)ccc21`, the MIC with Candida albicans [1] was greater than 50 µg/mL; in the data set with Candida albicans [2], 50 µg/mL (≈ 61.3 µM); in the data set on Staphylococcus aureus [3] it was 3.12 µg/mL (≈ 3.83 µM); in the data set on Staphylococcus aureus [4], 1.56 µg/mL (≈ 1.91 µM); with Staphylococcus aureus [5], 1.56 µg/mL (≈ 1.91 µM); in the data set with Escherichia coli, 12.5 µg/mL (≈ 15.3 µM). The MIC in the data set on Pseudomonas aeruginosa was 25 µg/mL (≈ 30.6 µM); in the data set with Acinetobacter baumannii [7] it was 12.5 µg/mL (≈ 15.3 µM); in the data set on Acinetobacter baumannii [8], 50 µg/mL (≈ 61.3 µM); with Klebsiella pneumoniae [9] it was 12.5 µg/mL (≈ 15.3 µM); in the data set on Klebsiella pneumoniae [10] it was 12.5 µg/mL (≈ 15.3 µM). In [6], the HC50 at 1 h is greater than 200 µg/mL.

With `CCCCCCCCCN1CCCc2cc(OCC(=O)N[C@@H](CCCNC(=N)N)C(=O)OC)ccc21`, the MIC with Candida albicans [1] came out at 3.12 µg/mL (≈ 6.2 µM); in the data set on Candida albicans [2] it was 3.12 µg/mL (≈ 6.2 µM); in the data set with Staphylococcus aureus [3], 3.12 µg/mL (≈ 6.2 µM); with Staphylococcus aureus [4], 1.56 µg/mL (≈ 3.1 µM); with Staphylococcus aureus [5], 1.56 µg/mL (≈ 3.1 µM); in the data set with Escherichia coli, 6.25 µg/mL (≈ 12.4 µM). The MIC with Pseudomonas aeruginosa was found to be 12.5 µg/mL (≈ 24.8 µM); with Acinetobacter baumannii [7], 6.25 µg/mL (≈ 12.4 µM); in the data set on Acinetobacter baumannii [8], 6.25 µg/mL (≈ 12.4 µM); in the data set on Klebsiella pneumoniae [9], 3.12 µg/mL (≈ 6.2 µM); in the data set on Klebsiella pneumoniae [10], 3.12 µg/mL (≈ 6.2 µM). This molecule returned an HC50 at 1 h in data set [6] greater than 200 µg/mL.

Turning to `CCCN1CCCc2cc(OCCCCNC(=N)N)ccc21`, the minimum inhibitory concentration (MIC) in the data set on Candida albicans [1] was greater than 50 µg/mL; with Candida albicans [2], greater than 50 µg/mL; with Staphylococcus aureus [3] it was 12.5 µg/mL (≈ 41.1 µM); with Staphylococcus aureus [4], 6.25 µg/mL (≈ 20.5 µM); in the data set on Staphylococcus aureus [5] it was 12.5 µg/mL (≈ 41.1 µM); in the data set on Escherichia coli, greater than 50 µg/mL. The molecule further had an HC50 at 1 h in [6] greater than 200 µg/mL.

Take `CCCCCCCCCN1CCCc2cc(OCC(=O)N[C@@H](CCCNC(=N)N)C(N)=O)ccc21`: the MIC with Candida albicans [1] stood at 3.12 µg/mL (≈ 6.39 µM); in the data set with Candida albicans [2], 3.12 µg/mL (≈ 6.39 µM); in the data set on Staphylococcus aureus [3] it was 1.56 µg/mL (≈ 3.19 µM); in the data set on Staphylococcus aureus [4] it was 1.56 µg/mL (≈ 3.19 µM); in the data set on Staphylococcus aureus [5] it was 1.56 µg/mL (≈ 3.19 µM); with Escherichia coli it was 3.12 µg/mL (≈ 6.39 µM). Further, the MIC is 6.25 µg/mL (≈ 12.8 µM) in the data set on Pseudomonas aeruginosa; 12.5 µg/mL (≈ 25.6 µM) with Acinetobacter baumannii [7]; 12.5 µg/mL (≈ 25.6 µM) in the data set on Acinetobacter baumannii [8]; 3.12 µg/mL (≈ 6.39 µM) in the data set with Klebsiella pneumoniae [9]; 3.12 µg/mL (≈ 6.39 µM) in the data set on Klebsiella pneumoniae [10]. In [6], the HC50 at 1 h is greater than 200 µg/mL.

On to `CC(C)=CCC/C(C)=C/CN1CCCc2cc(OCCCCCCCCBr)ccc21`, for which the minimum inhibitory concentration (MIC) was found to be 12.5 µg/mL (≈ 26.2 µM) in the data set on Candida albicans [1]; 12.5 µg/mL (≈ 26.2 µM) with Candida albicans [2]; 6.25 µg/mL (≈ 13.1 µM) in the data set with Staphylococcus aureus [3]; 6.25 µg/mL (≈ 13.1 µM) with Staphylococcus aureus [4]; 6.25 µg/mL (≈ 13.1 µM) in the data set on Staphylococcus aureus [5]; 25 µg/mL (≈ 52.5 µM) in the data set with Escherichia coli. Besides, the HC50 at 1 h in data set [6] is greater than 200 µg/mL.
